The values that follow are results of earlier work, collected in US20110224196A1, “TREATMENT OF O[…] APNEA SYNDROME WITH A COMBINATION OF A CARBONIC ANHYDRASE INHIBITOR AND AN […] AGENT” (Vivus, Inc., priority 2010, published 2011).

In the case of `NC(=O)C[S+]([O-])C(c1ccccc1)c1ccccc1` (stereo not shown) [Modafinil, 2-[(diphenylmethy)sulfinyl]-N-acetamide], the solubility in acetone entry (acetone) was “sparingly or slightly soluble”. Also, the solubility in cyclohexane entry (cyclohexane) is listed as “insoluble”. Moreover, the solubility in methanol entry (methanol) is “sparingly or slightly soluble”. Besides, the solubility in water entry (water) was “insoluble”.
